Results: patent US7160867B2 (Isotechnika, Inc., priority 2003, dated 2007)
Entries after “also recorded” stand apart in the source; their conditions may differ.

Legend:
[1] = Stability toward hydrolysis in acidic media; type: physicochemical; conditions: 70/30 methanol/0.1N HCl (pH 1.5); free rapamycin by HPLC at 1 hour
[2] = Hydrolysis of rapamycin carbohydrate derivatives in human whole blood; type: in vitro ADME; conditions: spiked in human whole blood; free rapamycin by HPLC at 1 hour
[3] = tested on: primary blood lymphocyte cultures (PBMC); assay: In vitro immunosuppressive activity, PBMC proliferation (alamar blue); type: cell-based; conditions: 3-day culturing, FIG. 5
[4] = Pharmacokinetic profiles in rats after oral dosing (rapamycin in whole blood by LC/MS); type: in vivo, Sprague Dawley rats; conditions: 2.5 or 10 mg/kg
Method: The pharmacokinetic profiles in rats of selected rapamycin carbohydrate derivatives were determined to investigate the ability of the derivatives to deliver free rapamycin into the bloodstream in vivo. […] Whole blood was extracted via jugular bleed over 24 hours and frozen at −20° C. until analysis. Whole blood was analyzed by Liquid Chromatography Mass Spectrometry for the presence of rapamycin.

Sprague-Dawley rats = assay: Serum cholesterol levels in rats; type: in vivo; conditions: 2.5 mg/kg/day for 12 days
Method: Cholesterol levels were measured at the 24-hour trough level on day 11.

[5] = tested on: heterotopic heart allografts; assay: Graft survival of heterotopic heart allografts in rats; type: in vivo, Wistar Furth rats to Lewis rats
Excerpt: If graft dysfunction was noted during the 30-day post-transplantation period, the animal was sacrificed. If the animal survived longer than 30 days post-transplantation, the test and control articles were discontinued and the animal was allowed to continue until graft dysfunction or up to 100 days post-transplantation.

washed human platelets = assay: Washed human platelet aggregation assay; conditions: 25 μg/ml, 2 μM ADP, after 8 minutes, FIG. 11
Beagle dogs = assay: Gastrointestinal tolerability in beagle dogs
[6] = in plasma and in low and neutral pH buffers at 37° C.; cited from earlier work
[7] = [14C]-rapamycin, healthy male volunteers; cited from earlier work
[8] = 2.5 mg/kg/day oral gavage, day -3 to day 30, N = 6 (derivative n = 5)

| Compound | Extent of Hydrolysis (%) [1] [%] | Extent of Hydrolysis (%) [2] [%] | cell proliferation inhibition / immunosuppressive activity [3] | time to maximum concentration of rapamycin in blood ([4]; FIG. 6) | serum cholesterol level relative to vehicle control group (Sprague-Dawley rats; 24-hour trough on day 11, FIG. 9) | serum cholesterol level relative to rapamycin group (Sprague-Dawley rats; 24-hour trough on day 11, p<0.01, FIG. 9) | prolonged survival of the graft over the vehicle control ([5]; 2.5 mg/kg/day) [%] | Average Survival Time (days post-transplant) Mean ± SEM [5, 8] [days post-transplant] | prolonged survival of the graft over the vehicle control ([5]; 10 mg/kg/day) [%] | Average Survival Time (days post-transplant) Mean ± SEM ([5]; 10 mg/kg/day oral gavage, day -3 to day 30, N = 6) [days post-transplant] | platelet aggregation (washed human platelets) | Observations (Beagle dogs; beagle dog 4, oral dose 1 mg/kg, rapamycin given one week after the derivative, 1 mg/kg) | Observations (Beagle dogs; beagle dog 4, oral dose 1 mg/kg, rapamycin given one week after the derivative, listed as 42-O-(D-fructosylcarbonyl)rapamycin, 1 mg/kg) | Observations (Beagle dogs; beagle dogs, single oral dose 10 mg/kg, 10 mg/kg) | Observations (Beagle dogs; beagle dogs, single oral dose 10 mg/kg, listed as 42-O-(D-fructosylcarbonyl)rapamycin, 10 mg/kg) | time to maximum concentration of rapamycin in blood ([4]; FIGS. 6 and 7) | half-life of degradation [6] | share of the total radioactivity in blood [7] |
| --- | --- | --- | --- | --- | --- | --- | --- | --- | --- | --- | --- | --- | --- | --- | --- | --- | --- | --- |
| CO[C@H]1C[C@@H]2CC[C@@H](C)[C@@](O)(O2)C(=O)C(=O)N2CCCC[C@H]2C(=O)O[C@H]([C@H](C)C[C@@H]2CC[C@@H](O)[C@H](OC)C2)CC(=O)[C@H](C)/C=C(\C)[C@@H](OC(=O)OCC2(O)OC[C@@H](O)[C@@H](O)[C@@H]2O)[C@@H](OC)C(=O)[C@H](C)C[C@H](C)/C=C/C=C/C=C/1C (stereo partly drawn) [31-O-(D-Fructosylcarbonyl)rapamycin] | <1 | 23 ± 0.5 |  |  |  |  |  |  |  |  |  |  |  |  |  |  |  |  |
| CO[C@H]1C[C@@H]2CC[C@@H](C)[C@@](O)(O2)C(=O)C(=O)N2CCCC[C@H]2C(=O)O[C@H]([C@H](C)C[C@@H]2CC[C@@H](OC(=O)OCC3(O)OC[C@@H](O)[C@@H](O)[C@@H]3O)[C@H](OC)C2)CC(=O)[C@H](C)/C=C(\C)[C@@H](O)[C@@H](OC)C(=O)[C@H](C)C[C@H](C)/C=C/C=C/C=C/1C (stereo partly drawn) [42-O-(D-Fructosylcarbonyl)rapamycin] | <1 | 28 ± 2 | equivalent to rapamycin | approximately 3 hours | not significantly different | significantly lower | 214 | 41 ± 4 | 341 | 57 ± 4 | does not exhibit a measurable effect | Lethargic; also recorded: Recovered | slight lethargy | Normal | no overt physical changes |  |  |  |
| CO[C@H]1C[C@@H]2CC[C@@H](C)[C@@](O)(O2)C(=O)C(=O)N2CCCC[C@H]2C(=O)O[C@H]([C@H](C)C[C@@H]2CC[C@@H](O)[C@H](OC)C2)CC(=O)[C@H](C)/C=C(\C)[C@@H](O)[C@@H](OC)C(=O)[C@H](C)C[C@H](C)/C=C/C=C/C=C/1C [Rapamycin] |  |  |  |  |  |  |  | 39 ± 4 |  |  |  |  |  |  |  | approximately 30 minutes | less than 10 hours | approximately 35% |
